Data as given in article PMC2856764 (Human immunology, 2010).
Ends that are not written are not given here.

Columns and labels:
Assay in all cases: biochemical
Assay type in all cases: binding
HLA-B*5101 = HLA-B*5101 (Homo sapiens, UniProt P01889, A329T/A93T/A95T/C349S/D138N/D201E/D98Y/E187L/E204Q/E69T/G107R/I218V/K202T/L105A/L119W/N104I/Q94N/R106L/R155S/R180L/S101N/S121T/S35A/S48A/V306I/V36M/Y195H/Y91F)
HLA-B*5401 = HLA-B*5401 (Homo sapiens, UniProt P01889, A329T/C349S/D138N/D201E/E176V/E187T/E204Q/E69G/I76V/K202T/L119W/R155S/R180L/S121T/S35A/S48A/V127L/V306I/V36M/Y140L)
HLA-B*3501 = HLA-B*3501 (Homo sapiens, UniProt P01889, A329T/A93T/A95T/C349S/D201E/D98Y/E176V/E187L/E204Q/E69T/I218V/K202T/L119I/Q94N/R155S/R180L/S121R/S35A/S48A/T118I/V127L/V306I/V36M/Y140S/Y91F)
HLA-B*5301 = HLA-B*5301 (Homo sapiens, UniProt P01889, A329T/A93T/A95T/C349S/D201E/D98Y/E176V/E187L/E204Q/E69T/G107R/I218V/K202T/L105A/L119I/N104I/Q94N/R106L/R155S/R180L/S101N/S121R/S35A/S48A/T118I/V127L/V306I/V36M/Y140S/Y91F)
HLA-B*0702 = HLA-B*0702 (Homo sapiens, UniProt P01889)

LPRRSGAAGA [NP.172]
IC50 (HLA-B*5101): > 10000 nM
IC50 (HLA-B*5401): 47 nM
IC50 (HLA-B*3501): > 10000 nM
IC50 (HLA-B*5301): > 10000 nM
IC50 (HLA-B*0702): 2 nM
